Test results as given in patent US20160000766A1, “HDAC INHIBITORS TO TREAT CHARCOT-MARIE-TOOTH DISEASE” (VIB VZW, priority 2010, published 2016).
Entries after “also recorded” stand apart in the source; their conditions may differ.

Experiments:
[1] = tested on: symptomatic HSPB1^S135F-expressing mice; test: Motor performance on accelerating rotarod of treated HSPB1^S135F-expressing mice; assay type: in vivo, mouse; conditions: for motor performance (accelerating rotarod): treated for three weeks, TSA 10 mg per kg, tubastatin A 25 mg per kg; for CMT2 phenotype at the behavioral and electrophysiological levels: treatment of mutant HSPB1 mice (Example 9)
Method: (§1) FIG. 8: HDAC6 inhibition rescues axonal transport defects and restores the CMT2 phenotype. Panels a and b: Axonal transport of mitochondria measured in DRG neurons isolated from ten-month-old HSPB1^S135F-expressing mice after 12 hours of treatment with TSA (0.4 μM), tubacin (2 μM), tubastatin A (1 μM) or an equivalent amount of DMSO. Total number of (Panel a) and number of moving (Panel b) mitochondria (per 200 seconds and per 100 μm) were quantified. n=20 to 30 cells isolated from three different mice for each condition. *P<0.05; **P<0.01; ***P<0.0001. Panels c and d: Western blots of sciatic nerve and spinal cord extracts from symptomatic eight-month-old HSPB1^S135F-expressing mice treated daily for three weeks with TSA (10 mg per kg body weight; Panel c) or tubastatin A (25 mg per kg body weight; Panel d) probed against acetylated tubulin. Equal loading was confirmed with α-tubulin staining. n=3. Panels e and f: Quantifications of optical density (OD) of acetylated tubulin on Western blots of sciatic nerve (Panel e) and spinal cord (Panel f) extracts of symptomatic HSPB1^S135F-expressing mice treated with TSA or tubastatin A. n=3. Panel g: Motor performance on an accelerating rotarod of HSPB1^S135F-expressing mice treated for three weeks with TSA or tubastatin A. Panels h and i: Effect of the TSA or tubastatin A treatments of HSPB1^S135F-expressing mice on the amplitudes of CMAPs (Panel h) or SNAPs (Panel i). n=3 to 6 mice per group. […]; **P<0.001; ***P<0.0001. One-way ANOVA was used to analyze the data in Panels a, b, and e through i. Data are presented as means±s.e.m.
Next, general motor performance was assessed using an accelerating rotarod. All mice could stay on the rotarod (300 seconds) until the age of six months. From that age on, both mutant HSPB1 lines started to fail on the rotarod test and a progressive reduction in performance was observed over time (P<0.0001; FIG. 1, Panel c).
(§2) It was also observed that the loss of acetylcholine-receptor clusters at the end plates in gastrocnemius muscle was restored (FIG. 9, Panel a) and that the level of denervation of the remaining neuromuscular junctions was decreased (FIG. 9, Panel b). These observations indicate that increasing acetylated α-tubulin abundance in peripheral nerves leads to re-innervation of muscles.

[2] = tested on: symptomatic HSPB1^S135F-expressing mice; test: Innervation level of the gastrocnemius muscle (neuromuscular junctions) in treated mice; assay type: in vivo, mouse; conditions: treated for three weeks; eight-month-old mice
Method: (§3) FIG. 9: TSA or tubastatin A treatment leads to muscle reinnervation and rescues axonal transport defects. Panels a and b: Effect of vehicle (DMSO), TSA or tubastatin A treatment on the innervation level of the gastrocnemius muscle in symptomatic, eight-month-old HSPB1^S135F-expressing mice. The number of visible neuromuscular junctions (NMJs) per axon in each field of view (Panel a) and the relative quantity of denervated neuromuscular junctions (Panel b) were determined after staining gastrocnemius muscle with antibodies against α-bungarotoxin and neurofilament heavy chain. n=2 or 3 mice per condition. ***P<0.0001. Panels c and d: Axonal transport of mitochondria measured in cultured DRG neurons isolated from symptomatic HSPB1^S135F-expressing mice after three weeks of treatment with TSA or tubastatin A. Total number (Panel c) and number of moving mitochondria (Panel d) were quantified (per 200 seconds and 100 μm). n=20 to 25 cells isolated from three different mice in each condition. *P<0.05; ***P<0.0001. One-way ANOVA was used to analyze the data. Tukey's HSD test was used for post hoc analysis in Panels a through d. Data are presented as means±s.e.m.
as §2

[3] = tested on: DRG neurons isolated from symptomatic HSPB1^S135F mice; test: Axonal transport of mitochondria in cultured DRG neurons treated in vitro with HDAC inhibitors; assay type: cell-based, mouse; conditions: for number of moving mitochondria / total numbers of mitochondria / effectiveness on total and moving mitochondria relative to TSA: 12 hours treatment; for number of moving mitochondria / total numbers of mitochondria: TSA 0.4 μM, tubacin 2 μM, tubastatin A 1 μM, vs DMSO; for effectiveness on total and moving mitochondria relative to TSA: FIG. 8, Panels a and b
Method: (§4) Panels a and b: Axonal transport of mitochondria was assessed in DRG neurons isolated from symptomatic (eight-month-old) HSPB1^S135F mice after 12 hours incubation with various concentrations (0, 0.25, 0.50 or 1.00 μM) of Tubastatin A. Panel a: Quantification of the total number of mitochondria at various concentrations of Tubastatin A. One-way ANOVA. P>0.05. Panel b: Quantification of the number of moving mitochondria at different concentrations of Tubastatin A. One-way ANOVA. * P<0.05; ** P<0.001; P<0.0001. Panel c: Quantification of the integrated density of the acetylated tubulin signal along neurites at various concentrations of Tubastatin A. n=25 to 30 cells/condition. One-way ANOVA. * P<0.05.
as §1
(§5) It has previously been shown that the intracellular distribution of specific cargoes, such as mutant HSPB1 itself, but also neurofilament and p150, was disturbed in cortical neurons transfected with HSPB1^P182L (ref. 12). In order to study effects of mutant HSPB1 on axonal transport, dorsal root ganglion (DRG) neurons from adult transgenic mice were isolated and analyzed mitochondrial transport in these neurons after two days in culture. Mitochondrial movement was visualized by loading DRG neurons with a selective mitochondrial marker (MITOTRAcKER®) and by live video imaging (FIG. 6, Panel a). Kymographs resulting from time compression of video images were used to quantify the total number of mitochondria present in the neurites and to discriminate antero- and retrogradely moving from stationary mitochondria (FIG. 6, Panel a, right-side panels).
Treatment of DRG neurons isolated from symptomatic HSPB1^[…]-expressing mice with TSA, tubacin or tubastatin A increased total numbers of mitochondria FIG. 8, Panel a) and restored the number of moving mitochondria (FIG. 8, Panel b).

acetylated α-tubulin = test: Western blots of acetylated α-tubulin in sciatic nerve and spinal cord of treated mice; assay type: in vivo, mouse; conditions: daily for 21 days, TSA 10 mg per kg, tubastatin A 25 mg per kg; for acetylated α-tubulin amounts in peripheral nerves: sciatic nerve
Method: as §1
Next, symptomatic HSPB1^S135F-expressing mice were treated for 21 days with either a nonspecific or a specific HDAC6 inhibitor.

[4] = tested on: DRG neurons isolated from symptomatic HSPB1^S135F-expressing mice; test: Ex vivo axonal transport of mitochondria in DRG neurons isolated from treated mice; design: species or system mouse; conditions: after three weeks of in vivo treatment
Method: as §3, §5
Finally, we measured ex vivo axonal transport in DRG neurons isolated from treated mice.

[5] = tested on: symptomatic HSPB1^S135F-expressing mice; test: Nerve conduction studies (CMAP and SNAP amplitudes) in treated mice; assay type: in vivo, mouse; conditions: treated for three weeks; TSA 10 mg per kg, tubastatin A 25 mg per kg
Method: as §1
Nerve conduction studies are routinely done on CMT patients to discriminate demyelinating (type 1) from axonal (type 2) forms, as well as to assess whether patients show either a mixed sensorimotor (CMT2) or a pure motor neuropathy (distal HMN). Therefore, nerve conduction studies were performed on transgenic HSPB1 mice using sub-dermal electrodes, either at the level of the gastrocnemius muscle to measure compound muscle action potentials (CMAPs), or in the distal end of the tail to record sensory nerve action potentials (SNAPs). […] The decrease in CMAP amplitudes in function of age was more pronounced in HSPB1^P182L compared to HSPB1^S135F mice as assessed by the slopes (slopeS135F=−4.66±0.32; slopeP182L=−6.23±0.93; P=0.004; FIG. 4, Panel c). CMAP latencies were unaffected, confirming the axonal nature of the motor neuropathy in both mutant HSPB1 lines (FIG. 4, Panel d).
It was also observed that the loss of acetylcholine-receptor clusters at the end plates in gastrocnemius muscle was restored (FIG. 9, Panel a) and that the level of denervation of the remaining neuromuscular junctions was decreased (FIG. 9, Panel b). […]

acetylated tubulin = test: Acetylated tubulin signal along neurites of cultured DRG neurons; assay type: cell-based, mouse; conditions: 12 hours incubation; 0, 0.25, 0.50 or 1.00 μM
Method: as §4

| Structure (SMILES) | motor performance (accelerating rotarod) [1] | CMT2 phenotype at the behavioral and electrophysiological levels [1] | level of denervation of the remaining neuromuscular junctions [2] | loss of acetylcholine-receptor clusters at the end plates in gastrocnemius muscle [2] | number of moving mitochondria [3] | total numbers of mitochondria [3] | acetylated α-tubulin amounts in spinal cord (acetylated α-tubulin) | overall α-tubulin abundance (acetylated α-tubulin) | acetylated α-tubulin amounts in peripheral nerves (acetylated α-tubulin) | number of moving mitochondria (ex vivo) [4] | CMAP amplitudes [5] | SNAP amplitudes [5] | effectiveness on total and moving mitochondria relative to TSA [3] | acetyl-tubulin levels in vitro (integrated density along neurites) (acetylated tubulin) | axonal transport of mitochondria, dose dependence ([3]; 12 hours incubation, 0, 0.25, 0.50 or 1.00 μM, eight-month-old HSPB1^S135F mice) | mitochondrial motility, overall rescue and comparison with TSA (ex vivo) [4] | total number of mitochondria (ex vivo) [4] |
| --- | --- | --- | --- | --- | --- | --- | --- | --- | --- | --- | --- | --- | --- | --- | --- | --- | --- |
| CC(/C=C/C(=O)NO)=C\[C@@H](C)C(=O)c1ccc(N(C)C)cc1 [TSA, Trichostatin A] | significantly increased | partially restored | decreased | restored | restored | increased | also increased | did not affect | significant increase | increased significantly | increased | increased | – | – | – | – | – |
| O=C(CCCCCCC(=O)Nc1ccc([C@H]2O[C@@H](CSc3nc(-c4ccccc4)c(-c4ccccc4)o3)C[C@@H](c3ccc(CO)cc3)O2)cc1)NO [tubacin] | – | – | – | – | restored | increased | – | – | – | – | – | – | more effective compared to TSA | – | – | – | – |
| CN1CCc2c(c3ccccc3n2Cc2ccc(C(=O)NO)cc2)C1 [tubastatin A] | significantly increased | partially restored | decreased | restored | restored | increased | – | did not affect | significant increase | increased significantly | increased | increased | more effective compared to TSA | increased | dose-dependently rescued | more effective than TSA; also recorded: complete rescue | increased |
